# Measured values: PMC10397291, “Molecular pathway and structural mechanism of human oncochannel TRPV6 inhibition by the phytocannabinoid tetrahydrocannabivarin” (Nature Communications, 2023)
# Substitutions are numbered along the chain they refer to.
# What was measured:
# [1] = Solubility of stock in DMSO; type: physicochemical; settings: organic solvent or mixture
# [2] = target: T1, F493A mutant hTRPV6 (Homo sapiens, UniProt Q9H1D0, F533A); experiment: Fura-2 AM Ca2+ uptake, F493A mutant hTRPV6; type: cell-based
# T1 construct: Full-length wild-type or mutant human TRPV6 was expressed in HEK 293S cells as described above; expressed in transfected cells; host or cells: HEK 293S GnTI- (baculovirus/BacMam transduction)
# T1 sequence (Q9H1D0 41-765 F533A limits assumed): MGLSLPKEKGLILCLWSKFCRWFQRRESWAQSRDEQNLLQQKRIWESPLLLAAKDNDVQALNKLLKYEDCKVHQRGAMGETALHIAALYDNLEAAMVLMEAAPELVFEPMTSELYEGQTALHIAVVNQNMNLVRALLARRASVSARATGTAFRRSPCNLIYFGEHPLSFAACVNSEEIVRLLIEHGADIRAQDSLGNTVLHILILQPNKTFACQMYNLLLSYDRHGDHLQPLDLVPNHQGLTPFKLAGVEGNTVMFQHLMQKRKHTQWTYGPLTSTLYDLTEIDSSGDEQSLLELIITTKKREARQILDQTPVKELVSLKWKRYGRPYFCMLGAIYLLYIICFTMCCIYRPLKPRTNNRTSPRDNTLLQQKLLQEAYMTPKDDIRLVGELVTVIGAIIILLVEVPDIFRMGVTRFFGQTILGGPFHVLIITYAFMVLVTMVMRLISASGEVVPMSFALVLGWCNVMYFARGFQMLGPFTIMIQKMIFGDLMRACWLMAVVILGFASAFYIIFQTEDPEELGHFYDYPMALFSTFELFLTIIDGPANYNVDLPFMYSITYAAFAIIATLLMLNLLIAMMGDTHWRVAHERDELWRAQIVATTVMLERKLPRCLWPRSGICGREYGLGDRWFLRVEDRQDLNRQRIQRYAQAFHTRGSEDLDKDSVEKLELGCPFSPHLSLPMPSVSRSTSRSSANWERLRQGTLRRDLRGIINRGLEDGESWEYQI
# [3] = target: T2, L568Q mutant hTRPV6 (Homo sapiens, UniProt Q9H1D0, L608Q); experiment: Fura-2 AM Ca2+ uptake, L568Q mutant hTRPV6; type: cell-based
# T2 construct: Full-length wild-type or mutant human TRPV6 was expressed in HEK 293S cells as described above; expressed in transfected cells; host or cells: HEK 293S GnTI- (baculovirus/BacMam transduction)
# T2 sequence (Q9H1D0 41-765 L608Q limits assumed): T1 sequence (Q9H1D0 41-765 F533A limits assumed) with A493F, L568Q
# [4] = target: T3, human TRPV6 (Homo sapiens, UniProt Q9H1D0); experiment: Whole-cell patch-clamp currents, -100 to 70 mV voltage ramp, HEK 293 cells expressing hTRPV6; type: cell-based; settings: 50 µM THCV, at –70 mV, n = 8
# T3 construct: All functional experiments in this manuscript have been done with the full-length protein, not truncated; expressed in transfected cells; host or cells: HEK 293 (ATCC #CRL-1573), transient, plasmid with IRES-GFP
# T3 sequence (Q9H1D0 41-765 limits assumed): T1 sequence (Q9H1D0 41-765 F533A limits assumed) with A493F
structure (smiles),measurement,setting,value
"CCCc1cc(O)c2c(c1)OC(C)(C)[C@@H]1CCC(C)=C[C@@H]21 [THCV, tetrahydrocannabivarin]",solubility,[1],50 mM
same,IC50,[2],2.7 ± 0.23 µM
same,fraction of uninhibited channels,"[2]; F493A, high THCV concentration",~ 20%
same,IC50,[3],62.1 ± 18.2 µM
same,ITHCV/IControl,[4],0.123 ± 0.029
